According to the supplement of paper PMC11061612:

How the values were obtained:
Assay in all cases: Bliss excess, mean over the matrix (fraction); higher = more synergy
[1] = test system: CADO-ES1 (Ewing's Sarcoma)
How it was run: (§1)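 Bliss excess equals the observed combination effect minus the expected value EA + EB − EA·EB, where EA and EB are the effects of each agent alone. Combination Emax is the second-highest inhibition within the matrix. Inhibition was scaled from CellTiter-Glo 2.0 luminescence, with 0 set by vehicle wells and 1 by blank wells, after 72 hours of two-drug dosing of cells plated in 1536-well plates.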

[2] = test system: ALL-SIL (T-Lymphoblastic Leukemia)
How it was run: as §1

[3] = test system: KMRC-1 (Kidney Carcinoma)
How it was run: as §1

[4] = test system: ME-180 (Cervical Carcinoma)
How it was run: as §1

[5] = test system: HCC2998 (Colorectal Carcinoma)
How it was run: as §1

[6] = test system: HCC1500 (Breast Carcinoma)
How it was run: as §1

[7] = test system: MOG-G-UVW (Low Grade Glioma)
How it was run: as §1

[8] = test system: NCI-H522 (Lung Adenocarcinoma)
How it was run: as §1

[9] = test system: OACM5-1 (Esophageal Adenocarcinoma)
How it was run: as §1

[10] = test system: NCI-H1355 (Lung Adenocarcinoma)
How it was run: as §1

[11] = test system: SKN (Other Solid Carcinomas)
How it was run: as §1

[12] = test system: NCI-H1092 (Small Cell Lung Carcinoma)
How it was run: as §1

[13] = test system: Mo-T (Other Blood Carcinomas)
How it was run: as §1

[14] = test system: LC-1-sq (Squamous Cell Lung Carcinoma)
How it was run: as §1

[15] = test system: DU-145 (Prostate Carcinoma)
How it was run: as §1

[16] = test system: COLO-668 (Small Cell Lung Carcinoma)
How it was run: as §1

[17] = test system: SW982 (Other Solid Carcinomas)
How it was run: as §1

[18] = test system: KGN (Other Solid Carcinomas)
How it was run: as §1

[19] = test system: SK-LU-1 (Lung Adenocarcinoma)
How it was run: as §1

[20] = test system: EFO-21 (Ovarian Carcinoma)
How it was run: as §1

| Structure (SMILES) | Bliss excess [1] | Bliss excess [2] | Bliss excess [3] | Bliss excess [4] | Bliss excess [5] | Bliss excess [6] | Bliss excess [7] | Bliss excess [8] | Bliss excess [9] | Bliss excess [10] | Bliss excess [11] | Bliss excess [12] | Bliss excess [13] | Bliss excess [14] | Bliss excess [15] | Bliss excess [16] | Bliss excess [17] | Bliss excess [18] | Bliss excess [19] | Bliss excess [20] |
| --- | --- | --- | --- | --- | --- | --- | --- | --- | --- | --- | --- | --- | --- | --- | --- | --- | --- | --- | --- | --- |
| CS(=O)(=O)CCNCc1ccc(-c2ccc3ncnc(Nc4ccc(OCc5cccc(F)c5)c(Cl)c4)c3c2)o1 [Lapatinib] + C[C@@H](Oc1cc(-c2cnn(C3CCNCC3)c2)cnc1N)c1c(Cl)ccc(F)c1Cl [Crizotinib] (first compound max 10 µM, 7x7, partner max 10 µM) | -0.0023 | 0.0033 | -0.0725 | -0.0227 | -0.044 | 0.0412 | 0.0013 | -0.0362 | -0.0691 | -0.0141 | -0.0289 | 0.0103 | -0.0658 | 0.0171 | -0.0242 | -0.0594 | -0.0579 | -0.0702 | -0.0582 | -0.0148 |
| CC(=O)c1c(C)c2cnc(Nc3ccc(N4CCNCC4)cn3)nc2n(C2CCCC2)c1=O [Palbociclib] + CC1(C)CCC(CN2CCN(c3ccc(C(=O)NS(=O)(=O)c4ccc(NCC5CCOCC5)c([N+](=O)[O-])c4)c(Oc4cnc5[nH]ccc5c4)c3)CC2)=C(c2ccc(Cl)cc2)C1 [Venetoclax] (first compound max 10 µM, 7x7, partner max 1 µM) | -0.177 | 0.0428 | -0.0653 | -0.0622 | -0.0212 | -0.0899 | -0.0282 | -0.0428 | 0.108 | -0.0031 | -0.0402 | -0.0224 | -0.0648 | -0.0161 | -0.0406 | -0.0554 | -0.0508 | 0.079 | 0.0024 | -0.0638 |
| CC(=O)c1c(C)c2cnc(Nc3ccc(N4CCNCC4)cn3)nc2n(C2CCCC2)c1=O [Palbociclib] + Cc1c2c(nn1C)CSCc1cc(n(C)n1)CSc1cc(c3ccccc3c1)OCCCc1c(C(=O)O)n(C)c3c-2c(Cl)ccc13 [AZD5991] (first compound max 10 µM, 7x7, partner max 1 µM) | -0.0356 | -0.0576 | -0.0363 | -0.0545 | -0.0746 | -0.0145 | -0.0122 | -0.0258 | -0.0456 | -0.0147 | -0.0465 | -0.0646 | -0.0208 | -0.0587 | -0.0216 | -0.0288 | -0.0151 | -0.0665 | -0.0693 | -0.0458 |
| CC(=O)c1c(C)c2cnc(Nc3ccc(N4CCNCC4)cn3)nc2n(C2CCCC2)c1=O [Palbociclib] + Cn1cnc2c(F)c(Nc3ccc(Br)cc3Cl)c(C(=O)NOCCO)cc21 [Selumetinib] (first compound max 10 µM, 7x7, partner max 10 µM) | -0.13 | -0.0358 | -0.0461 | 0.0042 | 0.0041 | -0.0229 | 0.0912 | -0.0389 | -0.0247 | 0.0542 | 0.0085 | -0.0322 | -0.0225 | -0.0004 | -0.0326 | 0.0008 | -0.058 | 0 | -0.0422 | -0.0531 |
| Cn1cnc2c(F)c(Nc3ccc(Br)cc3Cl)c(C(=O)NOCCO)cc21 [Selumetinib] + C=CCn1c(=O)c2cnc(Nc3ccc(N4CCN(C)CC4)cc3)nc2n1-c1cccc(C(C)(C)O)n1 [AZD1775] (first compound max 10 µM, partner max 1 µM) | -0.114 | -0.0934 | -0.0061 | -0.071 | -0.0267 | -0.0261 | -0.0144 | -0.059 | -0.0964 | -0.0037 | -0.0294 | -0.0961 | -0.0318 | -0.095 | 0.0039 | -0.0563 | -0.0112 | -0.115 | 0.0035 | -0.0834 |
| Cn1cnc2c(F)c(Nc3ccc(Br)cc3Cl)c(C(=O)NOCCO)cc21 [Selumetinib] + CC(C)n1c(=O)n(C)c2cnc3cc(F)c(-c4ccc(OCCCN5CCCCC5)nc4)cc3c21 [AZD1390] (first compound max 10 µM, 7x7, partner max 0.3 µM) | -0.0446 | -0.0164 | -0.0685 | -0.0521 | 0.0076 | -0.0156 | 0.0397 | -0.0483 | -0.0273 | 0.0043 | -0.0616 | -0.0468 | -0.0339 | -0.0465 | -0.0312 | 0.0314 | -0.0484 | 0.0282 | -0.02 | -0.026 |
| Cn1cnc2c(F)c(Nc3ccc(Br)cc3Cl)c(C(=O)NOCCO)cc21 [Selumetinib] + CCN(CCO)CCCOc1ccc2c(Nc3cc(CC(=O)Nc4cccc(F)c4)[nH]n3)ncnc2c1 [AZD2811] (first compound max 10 µM, 7x7, partner max 1 µM) | -0.0515 | -0.0031 | -0.0101 | -0.0346 | -0.019 | -0.0123 | 0.0279 | -0.0359 | 0.0404 | 0.0102 | -0.068 | -0.0083 | -0.0328 | -0.0324 | -0.0077 | -0.0161 | -0.0933 | -0.0586 | -0.098 | -0.0877 |
| Cn1cnc2c(F)c(Nc3ccc(Br)cc3Cl)c(C(=O)NOCCO)cc21 [Selumetinib] + C[C@@H]1COCCN1C2=NC(=NC(=C2)C3(CC3)[S@](=N)(=O)C)C4=C5C=CNC5=NC=C4 [AZD6738] (first compound max 10 µM, 7x7, partner max 10 µM) | -0.0031 | 0.0106 | -0.0303 | -0.0115 | 0.0464 | -0.0346 | -0.0662 | -0.0653 | -0.0096 | -0.0213 | 0.0406 | -0.0466 | -0.0055 | 0.0238 | -0.0441 | 0.038 | -0.0499 | -0.0817 | -0.116 | -0.0192 |
